Experiment: in vivo
Conditions: male, Sprague-Dawley, rat, ip, 10 mg/kg

- AUC(0-inf): 9100 ng·h/mL
- AUC(0-t): 9070 ng·h/mL
- CL/F: 30 mL/min/kg
- Cmax: 5110 ng/mL
- half-life: 1.4 ± 0.3 h
SMILES: Cc1cccc(-c2ccc(-c3cc4cnc(NC5CC5)nc4n(CCCCCC(=O)NO)c3=O)c(Cl)c2)n1 [ZMF-25]

Reference: paper PMC12038163 (Research, 2025)
